Key:
[1] = tested on: Toledo cells; assay: Cell proliferation assay (MTS), Toledo cells; type: cell-based; conditions: Homo sapiens, 72 h
Protocol: MTS testing kit was purchased from Promega (Madison, WI, USA). The RPMI-1640, Fetal bovine serum and Penicillin-Streptomycin were purchased from BI (Biological Industries, Beit Haemek, Israel). Dimethyl sulfoxide (DMSO) was purchased from Sigma (St. Louis., MO, USA). Toledo (ATCC catalog #: CRL-2631) cells were cultured in RPMI-1640 supplemented with Penicillin-Streptomycin and 10% FBS.
To investigate whether a compound is able to inhibit the activity of BCL-2 in cells, a mechanism-based assay using Toledo lines was developed. In this assay, the inhibition of BCL-2 was reflected by the inhibition of cell proliferation of Toledo cells. Cells were plated into 96-well plates at the optimized cell density of 30000 cells/well. Plates were incubated at 37° C., with 5% CO2 for 4 h. Compounds were serially diluted and added to the plates with the final concentrations of 10000, 3333.3, 1111.1, 370.4, 123.5, 41.2, 13.7, 4.6 and 1.5 nM. Plates were incubated at 37° C., with 5% CO2 for 72 h. 20 μl MTS was added into each well and the plates were incubated at 37° C., with 5% CO2 for exactly 2 h. The absorbance was measured by a microplate reader at 490 nm. IC50 was calculated using GraphPad Prism 5.0 software.

[2] = tested on: RS4;11-BCL-2 G101V cells; assay: Cell proliferation assay (MTS), RS4;11-BCL-2 G101V engineered cells; type: cell-based; conditions: Homo sapiens, 120 h, read-out: RS4, 11 BCL2-G101V IC50
Procedure, shortened: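 Cells were plated, allowed to settle 4 h (G101V, F104L) or 24 h (D103E, D103Y), and treated with serially diluted compound (10000 down to 1.5 nM). After 120 h or 72 h respectively at 37 °C, MTS was added for 2 h and absorbance at 490 nm gave IC50 values.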

IC50 [2] [nM] | Compound | IC50 [1] [nM]
1 | COc1nc2[nH]cc(F)c2cc1Oc1cc(N2CCC3(CC2)CC(N2CCN(Cc4cc(F)c(OC)c(F)c4)C[C@H]2c2ccccc2C(C)C)C3)ccc1C(=O)NS(=O)(=O)c1cnc(NC[C@H]2CC[C@](C)(O)CC2)c([N+](=O)[O-])c1 [Example 107, 4-(2-((R)-4-(3,5-difluoro-4-methoxybenzyl)-2-(2-isopropylphenyl)piperazin-1-yl)-7-azaspiro[3.5]nonan-7-yl)-2-((3-fluoro-6-methoxy-1H-pyrrolo[2,3-b]pyridin-5-yl)oxy)-N-((6-((((1r,4r)-4-hydroxy-4-methylcyclohexyl)methyl)amino)-5-nitropyridin-3-yl)sulfonyl)benzamide] | 1
1 | CCOc1nc2[nH]cc(F)c2cc1Oc1cc(N2CCC3(CC2)CC(N2CCN(CCOC)C[C@H]2c2ccccc2C(C)C)C3)ccc1C(=O)NS(=O)(=O)c1cnc(NC[C@H]2CC[C@](C)(O)CC2)c([N+](=O)[O-])c1 [Example 130, 2-((6-ethoxy-3-fluoro-1H-pyrrolo[2,3-b]pyridin-5-yl)oxy)-N-((6-((((1r,4r)-4-hydroxy-4-methylcyclohexyl)methyl)amino)-5-nitropyridin-3-yl)sulfonyl)-4-(2-((R)-2-(2-isopropylphenyl)-4-(2-methoxyethyl)piperazin-1-yl)-7-azaspiro[3.5]nonan-7-yl)benzamide] | 1
1 | CCOc1nc2[nH]cc(F)c2cc1Oc1cc(N2CCC3(CC2)CC(N2CCN(C4COC4)C[C@H]2c2ccccc2C(C)C)C3)ccc1C(=O)NS(=O)(=O)c1cnc(NC[C@H]2CC[C@](C)(O)CC2)c([N+](=O)[O-])c1 [Example 132, 2-((6-ethoxy-3-fluoro-1H-pyrrolo[2,3-b]pyridin-5-yl)oxy)-N-((6-((((1r,4r)-4-hydroxy-4-methylcyclohexyl)methyl)amino)-5-nitropyridin-3-yl)sulfonyl)-4-(2-((R)-2-(2-isopropylphenyl)-4-(oxetan-3-yl)piperazin-1-yl)-7-azaspiro[3.5]nonan-7-yl)benzamide] | 1
1 | CCOc1nc2[nH]cc(F)c2cc1Oc1cc(N2CCC3(CC2)CC(N2CCN(Cc4cnn(C5CC5)c4)C[C@H]2c2ccccc2C(C)C)C3)ccc1C(=O)NS(=O)(=O)c1cnc(NC[C@H]2CC[C@](C)(O)CC2)c([N+](=O)[O-])c1 [Example 134, 4-(2-((R)-4-((1-cyclopropyl-1H-pyrazol-4-yl)methyl)-2-(2-isopropylphenyl)piperazin-1-yl)-7-azaspiro[3.5]nonan-7-yl)-2-((6-ethoxy-3-fluoro-1H-pyrrolo[2,3-b]pyridin-5-yl)oxy)-N-((6-((((1r,4r)-4-hydroxy-4-methylcyclohexyl)methyl)amino)-5-nitropyridin-3-yl)sulfonyl)benzamide] | 1
1 | CCOc1nc2[nH]cc(F)c2cc1Oc1cc(N2CCC3(CC2)CC(N2CCN(C)C[C@H]2c2ccccc2C(C)C)C3)ccc1C(=O)NS(=O)(=O)c1cnc(NC[C@H]2CC[C@](C)(O)CC2)c([N+](=O)[O-])c1 [Example 138, 2-((6-ethoxy-3-fluoro-1H-pyrrolo[2,3-b]pyridin-5-yl)oxy)-N-((6-((((1r,4r)-4-hydroxy-4-methylcyclohexyl)methyl)amino)-5-nitropyridin-3-yl)sulfonyl)-4-(2-((R)-2-(2-isopropylphenyl)-4-methylpiperazin-1-yl)-7-azaspiro[3.5]nonan-7-yl)benzamide] | 1
1 | COc1ccc(CN2CCN(C3CC4(CCN(c5ccc(C(=O)NS(=O)(=O)c6cnc(NC[C@H]7CC[C@](C)(O)CC7)c([N+](=O)[O-])c6)c(Oc6cnc7[nH]cc(F)c7c6)c5)CC4)C3)[C@H](c3ccccc3C(C)C)C2)cc1F [Example 201, 2-((3-fluoro-1H-pyrrolo[2,3-b]pyridin-5-yl)oxy)-4-(2-((R)-4-(3-fluoro-4-methoxybenzyl)-2-(2-isopropylphenyl)piperazin-1-yl)-7-azaspiro [3.5]nonan-7-yl)-N-((6-((((1r,4r)-4-hydroxy-4-methylcyclohexyl)methyl)amino)-5-nitropyridin-3-yl)sulfonyl)benzamide] | 1

— patent US20250122191A1, “COMPOUNDS AS BCL-2 INHIBITORS” (Fochon Biosciences, Ltd, priority 2021, published 2025)
